# Where a SMILES comes first, the peptide text is derived from it. Bridges are numbered along the chain shown (N, C = ends). Roman numbers before positions name the chains, in order. [ ]: non-standard residue; d: D form. Tle = CC(C)(C)[C@H](N)C(=O)O; dDab = NCC[C@@H](N)C(=O)O; hSer = N[C@@H](CCO)C(=O)O; Dab = NCC[C@H](N)C(=O)O
# Key:
# [1] = test system: Escherichia coli (clinical isolate); assay type: cell-based
# Procedure: (§1) Figure 2 Determination of MBC values for (A) E. coli and (B) P. aeruginosa. Surviving bacterial colonies were detected after incubation with tested peptides for 3 h in MHB.
# (§2) Bacterial strains used in this study were clinical isolates of Escherichia coli and Pseudomonas aeruginosa provided by Utrecht University Medical Center, Department of Medical Microbiology, Utrecht, The Netherlands. Both strains were cultured in Mueller Hinton broth (MHB) (Millipore, Sigma-Aldrich).
# (§3) Logarithmic growth phase of an o/n bacterial culture was obtained by diluting it 1:100 in MHB and then incubating it for 3 h at 37 °C while shaking. After that, the OD620 of the bacterial suspension was measured and the bacterial solution was diluted to 2 × 10^6 colony forming units/mL (CFU/mL). Bacteria and peptides in MHB were mixed 1:1 (v/v) and incubated for 3 h at 37 °C in a polypropylene round-bottom 96 well-plate (Corning Costar, Glendale, AZ). Subsequently, 10-fold dilutions were made and plated out on Tryptone Soy Agar (TSA) plates and incubated for 24 h at 37 °C to count colonies.
# [2] = test system: Pseudomonas aeruginosa (clinical isolate); assay type: cell-based; details: 3 h
# Procedure: as §1, §2, §3
# [3] = test system: E. coli O111:B4 LPS stimulated RAW264.7 macrophages; test: Nitric oxide inhibition assay (Griess), E. coli O111:B4 LPS; assay type: cell-based; details: 0–5 μM peptide
# Procedure: (§4) Figure 3 Nitric oxide inhibition in LPS stimulated RAW264.7 by peptide antibiotics. RAW264.7 cells were stimulated with smooth type LPSs (A) E. coli O111:B4 LPS and (B) P. aeruginosa LPS and rough type LPS (C) E. coli K-12 LPS in the presence of different concentrations of peptides: CPA, murepavadin, MHM, PMB, and PMBN. NO production was measured by Griess assay. Shown are the mean ± SEM of three independent experiments. (D) Schematic diagram of the general structure of lipopolysaccharides. It consists of three main subunits: lipid A, the core region, and the O-antigen. Lipid A and the core-region form rough (R)-type LPS. Lipid A, the core-region, and the O-antigen together form smooth (S)-type LPS.
# (§5) RAW264.7 cells were seeded (5 × 10^4 cells/well) in a 96-well plate and left at 37 °C for overnight adherence. Then, cells were stimulated with […] types of LPS: 20 ng/mL LPS originating from E. coli O111:B4 (LPS-EB, InvivoGen), 50 ng/mL LPS from P. aeruginosa (PA-10 LPS, Sigma -Aldrich), and 5 ng/mL LPS from E. coli K-12 (LPS-EK, InvivoGen) in the presence of 0–5 μM peptides in DMEM for 24 h. After incubation, the nitrite content (corresponding to nitric oxide produced but quickly oxidized in watery solutions to nitrite) in the supernatant was measured using the Griess assay.[28]
# [4] = test system: P. aeruginosa 10 LPS stimulated RAW264.7 macrophages; test: Nitric oxide inhibition assay (Griess), P. aeruginosa 10 LPS; assay type: cell-based; details: 0–5 μM peptide
# Procedure: as §4, §5
# [5] = test system: E. coli K-12 LPS stimulated RAW264.7 macrophages; test: Nitric oxide inhibition assay (Griess), E. coli K-12 LPS; assay type: cell-based; details: 0–5 μM peptide
# Procedure: as §4, §5
# [6] = test system: E. coli O111:B4 LPS stimulated RAW264.7 macrophages; test: TNF-α release ELISA in LPS stimulated macrophages; assay type: cell-based; details: 20 ng/mL E. coli O111:B4 LPS, 24 h
# Procedure: (§6) Figure 4 Peptides modulation of cytokine expression in RAW264.7 cells stimulated with LPS. RAW macrophages were stimulated with 20 ng/mL E. coli LPS in the presence of different concentrations of peptide antibiotics. (A) TNF-α and (B) IL-10 release was measured by ELISA in duplicates. Shown are the mean ± SEM of three independent experiments.
# as §5
# (§7) A sandwich ELISA was used to measure TNF-α and IL-10 concentrations in the supernatant of the same treatment (24 h) used for nitrite measurement, using ELISA Duoset kits (R&D systems, Minneapolis, MN) according to the manufacturer’s protocol.
# [7] = test system: E. coli O111:B4 LPS stimulated RAW264.7 macrophages; test: IL-10 release ELISA in LPS stimulated macrophages; assay type: cell-based; details: 20 ng/mL E. coli O111:B4 LPS, 24 h
# Procedure: as §6, §5, §7
# E. coli O111:B4 LPS = test: Isothermal titration calorimetry (ITC) of LPS binding; details: 30 μM peptide, 200 μM LPS in 50% PBS, 37 °C, representative of two measurements
# Procedure: Figure 6 (A) Binding profile of LPS and the peptides using ITC. Binding signatures (ΔG, ΔH. and −TΔS) plotted for binding events of LPS with peptides. (B) Spectra of the interaction between LPS and peptides. Murepavadin, PMB, MHM, PMBN, and CPA (30 μM) were titrated against 200 μM E. coli O111:B4 LPS, and heat rates were recorded. Shown is a representative of two measurements.
# ITC measurements were performed in a low volume NanoITC (TA Instruments-Waters LLC, New Castle, DE). Two hundred micromolar LPS (from E. coli O111:B4) was prepared in 50% PBS. Peptides of 30 μM concentration were prepared in identical buffer. Three hundred microliters of the peptide solution was added to the chamber (chamber volume is 169 μL, so the rest of the volume flows out and rests around the chamber), and 50 μL of LPS was added to the syringe. At 37 °C, 2 μL of LPS solution was injected into the chamber every 300 s, except the first injection, which consists of 0.96 μL. The experiments were performed at 37 °C while stirring at 300 rpm. The data was analyzed with the NanoAnalyze Software (TA Instruments, Asse, Belgium).
# [8] = test system: RAW264.7 macrophages stimulated with treated P. aeruginosa; test: Silent killing: stimulation of macrophages with nonviable bacteria (TNF-α ELISA); assay type: cell-based; details: bacteria 1 × 10^6 CFU/mL treated with 20 μM peptide 1 h at 37 °C, RAW264.7 2 h, three independent experiments
# Procedure: Figure 7 (A) Determination of macrophage activation in response to viable and nonviable bacteria. P. aeruginosa was treated with gentamicin, heat treatment, CATH-2 (control), CPA, murepavadin, MHM, PMB, or PMBN (20 μM of each) and subsequently added to RAW264.7 macrophages. Production of TNF-α was measured using ELISA after 2 h of treatment. (B) Viability of P. aeruginosa after treatment was checked by plating on TSA plates. Data is plotted as the mean ± SEM of three independent experiments. Significant differences were determined by ordinary one-way ANOVA (Tukey’s multiple comparison test).
# RAW264.7 cells were seeded (7.5 × 10^4 cells/well) as described above. P. aeruginosa (diluted to 1 × 10^6 CFU/mL in DMEM) was treated separately with heat (1 h at 90 °C), 1 mg/mL gentamicin (1 h at 37 °C), 20 μM CPA (1 h at 37 °C), 20 μM PMB (1 h at 37 °C), 20 μM murepavadin (1 h at 37 °C), 20 μM MHM (1 h at 37 °C), 20 μM CATH-2 (1 h at 37 °C), and DMEM only (untreated sample) (1 h at 4 °C). After treatment, the bacteria were added to the RAW264.7 cells for 2 h of incubation at 37 °C. After that, TNF-α production was determined in the supernatant by ELISA.
smiles,measurement,setting,value
CC(C)C[C@@H]1NC(=O)[C@@H](Cc2ccccc2)NC(=O)[C@H](CCN)NC(=O)[C@@H](NC(=O)[C@H](CCN)NC(=O)[C@@H](NC(=O)[C@H](CCN)NC(=O)CC[C@@H]2NC(=O)[C@H](CCN)NC(=O)[C@H](Cc3ccc(O)cc3)NC(=O)[C@H]([C@@H](C)O)NC(=O)[C@H](C(C)C)NC(=O)[C@@H]3CCCN3C(=O)[C@@H](C)NC(=O)[C@H](CO)NC(=O)[C@H](C)NC(=O)[C@H](C(C)(C)C)NC(=O)[C@H](CCO)NC(=O)[C@H](Cc3c[nH]c4ccccc34)NC(=O)[C@H](CCO)NC(=O)[C@@H](CCN)NC2=O)[C@@H](C)O)CCNC(=O)[C@H]([C@@H](C)O)NC(=O)[C@H](CCN)NC(=O)[C@H](CCN)NC1=O [CPA] (I: cyclo([dDab][hSer]W[hSer][Tle]AS[dA]PVTY[Dab]E) / II: [Dab]T[Dab][Dab][Dab][dF]L[Dab][Dab]T; amide I:14-II:N (inferred); lactam II:4-II:C (inferred); ring closure inferred),decrease in viable E. coli,"[1]; at 1.25 μM peptide, from starting density of 10^6 CFU/mL, 3 h in MHB",2 log
same,MBC (complete killing) against E. coli,"[1]; clinical isolate, 3 h",10 µM
same,MBC (complete killing) against P. aeruginosa,[2],2.5 µM
same,concentration that completely neutralized E. coli O111:B4 LPS (nitric oxide production),"[3]; 20 ng/mL LPS, 24 h in DMEM, Griess assay",20 nM
same,inhibition of LPS-induced nitric oxide production (in words),"[3]; smooth E. coli O111:B4 LPS 20 ng/mL, 24 h",dose-dependently active
same,concentration that almost completely neutralized P. aeruginosa 10 LPS (nitric oxide production),"[4]; 50 ng/mL LPS, 24 h in DMEM, Griess assay",20 nM
same,inhibition of LPS-induced nitric oxide production (in words),"[4]; smooth P. aeruginosa 10 LPS 50 ng/mL, 24 h",dose-dependently active
same,concentration that neutralized E. coli K-12 LPS (nitric oxide production),"[5]; 5 ng/mL rough LPS, 24 h in DMEM, Griess assay",5 µM
same,inhibition of LPS-induced nitric oxide production (in words),"[5]; rough E. coli K-12 LPS 5 ng/mL, 24 h",dose-dependently active
same,inhibition of TNF-α release (in words),[6],sharply decreased the TNF-α and IL-10 release by RAW264.7 macrophages at a concentration of 5 nM
same,inhibition of IL-10 release (in words),[7],sharply decreased the TNF-α and IL-10 release by RAW264.7 macrophages at a concentration of 5 nM
same,Kd,E. coli O111:B4 LPS,7.8 µM
same,macrophage activation (TNF-α) by peptide-treated P. aeruginosa compared to viable untreated bacteria,[8],significantly reduced immune response

# Reference: article PMC10012172, “Chimeric Peptidomimetic Antibiotic Efficiently Neutralizes Lipopolysaccharides (LPS) and Bacteria-Induced Activation of RAW Macrophages” (ACS Infectious Diseases, 2023)
